Assay results: patent US8071600B2, “Derivatives of 4-piperazin-1-yl-4-benzo[B]thiophene suitable for the treatment of CNS disorders” (Otsuka Pharmaceutical Co., Ltd., priority 2005, dated 2011)
Structures can show the parent of a compound that is named as a salt.

Tests used:
[1] = target: T1, Serotonin 5-HT2A receptor (Rattus norvegicus, UniProt P14842); assay: Serotonin 5-HT2A receptor binding assay ([3H]-Ketanserin); conditions: Serotonin 5-HT2A receptor binding test, rat frontal cortex membrane, Ki calculated from IC50 by Cheng-Prussoff formula
T1 construct: from tissue; host or cells: Wistar rat brain, frontal cortex membranes
Protocol: 2) Serotonin 5-HT2A Receptor Binding Assay
The assay was performed according to the method by Leysen J E et al. (Leysen J E, Niemegeers C J E, Van Nueten J M and Laduron P M. [3H] Ketanserin (R 41 468), a selective 3H-ligand for serotonin 2 receptor binding sites. Mol. Pharmacol., 1982, 21: 301-314).
Wistar male rats were decapitated, the brain was retrieved immediately and frontal cortex was taken out. It was homogenized in 0.25 M sucrose of a volume 10 times of the weight of the tissue using a Teflon glass homogenizer, and centrifuged at 4° C., 1,000×g for 10 minutes. The obtained supernatant was transferred to another centrifuge tube and suspended in 0.25 M sucrose of a volume 5 times of the weight of the tissue and the precipitate was centrifuged in the above-described condition. The obtained supernatant was combined with the supernatant obtained above and adjusted to a volume 40 times of the weight of the tissue with 50 mM Tris-hydrochloric acid buffer (pH 7.4), and centrifuged at 4° C., 35,000×g for 10 minutes. The obtained precipitate was suspended again in the above-described buffer of a volume 40 times of the weight of the tissue and centrifuged in the above-described condition. The obtained precipitate was suspended in the above-described buffer of a volume 20 times of the weight of the tissue and preserved by freezing at −85° C. till it was used for binding assay as a membrane specimen.
The binding assay was performed using 40 μl of the membrane specimen, 20 μl of [^3H]-Ketanserin (final concentration 1 to 3 nM), 20 μl of a test drug and 50 mM Tris-hydrochloric acid buffer (pH 7.4) so that the total amount was 200 μl (final dimethylsulfoxide concentration 1%). The reaction was performed at 37° C. for 20 minutes and terminated by conducting suction filtration with a cell harvester on a glass fiber filter plate.
The filter plate made of glass fiber was washed with 50 mM Tris-hydrochloric acid buffer (pH 7.4), and after dried, a microplate liquid scintillation cocktail was added and the radioactivity was measured with a microplate scintillation counter. Radioactivity in the presence of 10 μM spiperone was assumed as nonspecific binding.
(§1) IC50 value was calculated from concentration-dependent reaction using a non-linear analysis program. Ki value was calculated from IC50 value using Cheng-Prussoff formula.

Dopamine D2 receptor = target: T2, Dopamine D2 receptor (Rattus norvegicus, UniProt P61169); assay: Dopamine D2 receptor binding assay ([3H]-raclopride); conditions: Dopamine D2 receptor binding test, rat corpus striatum membrane, Ki calculated from IC50 by Cheng-Prussoff formula
T2 construct: from tissue; host or cells: Wistar rat brain, corpus striatum membranes
Protocol: 1) Dopamine D2 Receptor Binding Assay
The assay was performed according to the method by Kohler et al. (Kohler C, Hall H, Ogren S O and Gawell L, Specific in vitro and in vivo binding of 3H-raclopride. A potent substituted benzamide drug with high affinity for dopamine D-2 receptors in the rat brain. Biochem. Pharmacol., 1985; 34: 2251-2259).
Wistar male rats were decapitated, the brain was retrieved immediately and corpus striatum was taken out. It was homogenized in 50 mM tris(hydroxymethyl)aminomethane (Tris)-hydrochloric acid buffer (pH 7.4) of a volume 50 times of the weight of the tissue using a homogenizer with a high-speed rotating blade, and centrifuged at 4° C., 48,000×g for 10 minutes. The obtained precipitate was suspended again in the above-described buffer of a volume 50 times of the weight of the tissue and after incubated at 37° C. for 10 minutes, centrifuged in the above-described condition. The obtained precipitate was suspended in 50 mM (Tris)-hydrochloric acid buffer (containing 120 mM NaCl, 5 mM KCl, 2 mM CaCl2, 1 mM MgCl2, pH 7.4) of a volume 25 times of the weight of the tissue and preserved by freezing at −85° C. till it was used for binding assay as a membrane specimen.
The binding assay was performed using 40 μl of the membrane specimen, 20 μl of [^3H]-raclopride (final concentration 1 to 2 nM), 20 μl of a test drug and 50 mM Tris-hydrochloric acid buffer (containing 120 mM NaCl, 5 mM KCl, 2 mM CaCl2, 1 mM MgCl2, pH 7.4) so that the total amount was 200 μl (final dimethylsulfoxide concentration 1%). The reaction was performed at room temperature for 1 hour and terminated by conducting suction filtration with a cell harvester on a glass fiber filter plate. The filter plate made of glass fiber was washed with 50 mM Tris-hydrochloric acid buffer (pH 7.4), and after dried, a microplate liquid scintillation cocktail was added and the radioactivity was measured with a microplate scintillation counter. Radioactivity in the presence of 10 μM (+)-butaclamol hydrochloride was assumed as nonspecific binding.
as §1

T2 sequence (P61169 whole entry): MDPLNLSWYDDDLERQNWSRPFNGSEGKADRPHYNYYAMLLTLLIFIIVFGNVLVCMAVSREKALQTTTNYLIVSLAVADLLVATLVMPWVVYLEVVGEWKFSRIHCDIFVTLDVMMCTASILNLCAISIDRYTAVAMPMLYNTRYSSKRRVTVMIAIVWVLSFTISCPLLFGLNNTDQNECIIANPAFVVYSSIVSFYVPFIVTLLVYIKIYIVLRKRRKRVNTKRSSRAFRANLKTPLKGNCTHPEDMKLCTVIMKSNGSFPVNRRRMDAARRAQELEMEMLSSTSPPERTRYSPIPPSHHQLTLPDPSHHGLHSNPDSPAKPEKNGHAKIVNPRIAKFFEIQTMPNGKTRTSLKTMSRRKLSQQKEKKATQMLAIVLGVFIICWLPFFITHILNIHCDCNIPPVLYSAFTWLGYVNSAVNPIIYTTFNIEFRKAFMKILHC
T1 sequence (P14842 whole entry): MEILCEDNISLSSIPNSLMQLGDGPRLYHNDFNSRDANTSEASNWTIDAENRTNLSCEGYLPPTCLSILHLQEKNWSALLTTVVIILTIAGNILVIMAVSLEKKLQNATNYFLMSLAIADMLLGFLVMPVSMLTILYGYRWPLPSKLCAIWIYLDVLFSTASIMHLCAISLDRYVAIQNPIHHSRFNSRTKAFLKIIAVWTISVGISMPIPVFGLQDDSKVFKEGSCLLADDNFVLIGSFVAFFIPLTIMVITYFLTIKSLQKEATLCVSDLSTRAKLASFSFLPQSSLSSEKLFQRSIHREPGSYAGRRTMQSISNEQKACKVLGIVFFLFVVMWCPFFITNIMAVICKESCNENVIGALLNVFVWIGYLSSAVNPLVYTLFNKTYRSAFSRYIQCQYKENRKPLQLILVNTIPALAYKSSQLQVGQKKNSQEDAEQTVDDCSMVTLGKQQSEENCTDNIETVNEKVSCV

Row | SMILES | melting point | Ki [1] [nM] | Ki (Dopamine D2 receptor) [nM]
1 | O=c1[nH]cnc2ccc(OCCCN3CCN(c4cccc5sccc45)CC3)cc12 [Example 94] | 213.1 to 218.5 °C | 2 | 2.4
2 | NC(=O)c1ccc(OCCCCN2CCN(c3cccc4sccc34)CC2)cc1 [Example 169] | 150 to 151.5 °C | 2.6 | 0.9
3 | CNC(=O)c1csc(OCCCN2CCN(c3cccc4sccc34)CC2)n1.Cl [Example 6, N-methyl-2-[3-(4-benzo[b]thiophen-4-yl-piperazin-1-yl)propoxy]thiazole-4-carboxamide hydrochloride] | 199.5 to 202.5 °C | 3.3 | 0.7
4 | NS(=O)(=O)c1ccc(OCCCN2CCN(c3cccc4sccc34)CC2)cc1 [Example 394] | 199 to 203 °C | 4.7 | 3.8
5 | CNC(=O)c1cc(C)c(OCCCN2CCN(c3cccc4sccc34)CC2)c(C)c1 [Example 241] | 152.5 to 154.5 °C | 0.7 | 0.4
6 | CCN(CC)CCNC(=O)c1ccc(OCCCN2CCN(c3cccc4sccc34)CC2)cc1 (as salt: hydrochloride) [Example 160] | 229.5 to 232.5 °C | – | –
7 | CN(C)C(=O)c1csc(OCCCN2CCN(c3cccc4sccc34)CC2)n1 (as salt: hydrochloride) [Example 1113] | 178 to 182 °C | – | –
8 | CN1CCN(Cc2ccc(OCCCN3CCN(c4cccc5sccc45)CC3)cc2)CC1 (as salt: hydrochloride) [Example 314] | 261.5 °C (dec.) | – | –
9 | COc1cc(N2CCCC2)cc(C)c1OCCCN1CCN(c2cccc3sccc23)CC1 (as salt: hydrochloride) [Example 1076] | 246.5 to 249 °C (dec.) | – | –
10 | COc1cc(NC(=O)CN)cc(C)c1OCCCN1CCN(c2cccc3sccc23)CC1 (as salt: hydrochloride) [Example 1060] | 268 °C (dec.) | – | –
11 | CCNC(=O)c1cc(OCCCN2CCN(c3cccc4sccc34)CC2)n(C)n1 (as salt: hydrochloride) [Example 62] | 210.5 to 214.5 °C | – | –
12 | CNC(=O)c1cc(OCCCN2CCN(c3cccc4sccc34)CC2)ncn1 (as salt: hydrochloride) [Example 58] | 205 to 209.5 °C | – | –
13 | COC(=O)N1CCN(c2cc(C)c(OCCCN3CCN(c4cccc5sccc45)CC3)c(OC)c2)C(=O)C1 (as salt: hydrochloride) [Example 1080] | 223 to 228 °C | – | –
14 | CCNC(=O)c1cc(OCCCN2CCN(c3cccc4sccc34)CC2)no1 (as salt: hydrochloride) [Example 72] | 219.5 to 222.5 °C (dec.) | – | –
15 | CN(C)c1cc(OCCCCN2CCN(c3cccc4sccc34)CC2)n(C)n1 (as salt: hydrochloride) [Example 1138] | 156.5 to 158.5 °C | – | –
16 | COc1cc(N2CCCC2=O)cc(CO)c1OCCCN1CCN(c2cccc3sccc23)CC1 (as salt: hydrochloride) [Example 359] | 144 to 145 °C | – | –

Results, then the compound that gave them:

Row | melting point | Ki [1] [nM] | Ki (Dopamine D2 receptor) [nM] | SMILES
17 | 150 to 150.5 °C | 3.8 | 2.3 | NC(=O)c1cc(OCCCN2CCN(c3cccc4sccc34)CC2)ccn1 [Example 48]
18 | 101 to 103 °C | 0.4 | 0.2 | COc1cc(CN(C)C)ccc1OCCCN1CCN(c2cccc3sccc23)CC1 [Example 301]
19 | 124 to 125.5 °C | 2.7 | 1.1 | CNC(=O)c1ccc(OCCCN2CCN(c3cccc4sccc34)CC2)c(N)c1 [Example 232]
20 | 141.5 to 142.5 °C | 0.3 | 0.3 | CNC(=O)c1cc(C)c(OCCCN2CCN(c3cccc4sccc34)CC2)c(OC)c1 [Example 252]
21 | 132.5 to 133.5 °C | 1 | 1.5 | CNC(=O)c1ccc(OCCCN2CCN(c3cccc4sccc34)CC2)nc1 [Example 27]
22 | 112.5 to 113.5 °C | 0.7 | 1.5 | CCNC(=O)Cc1ccc(OCCCN2CCN(c3cccc4sccc34)CC2)cc1 [Example 323]
23 | 156.5 to 158 °C | 2 | 1.3 | CNC(=O)c1ccc(OCCCN2CCN(c3cccc4sccc34)CC2)c(C)c1 [Example 186]
24 | 149.5 to 150.5 °C | 4.8 | 1.9 | NC(=O)Cc1ccc(OCCCN2CCN(c3cccc4sccc34)CC2)cc1 [Example 340]
25 | 156.5 to 159 °C | 0.6 | 1.2 | NC(=O)c1ccc(F)c(OCCCN2CCN(c3cccc4sccc34)CC2)c1 [Example 271]
26 | 247.5 to 253 °C (dec.) | – | – | COc1cc(NC=O)cc(C)c1OCCCN1CCN(c2cccc3sccc23)CC1 (as salt: hydrochloride) [Example 354]
27 | 109 to 110.5 °C | – | – | COC(=O)c1cc(OCCCN2CCN(c3cccc4sccc34)CC2)n(C)n1 [Example 1, methyl 5-[3-(4-benzo[b]thiophen-4-yl-piperazin-1-yl)propoxy]-1-methyl-1H-pyrazole-3-carboxylate]
28 | 230 to 234 °C (dec.) | 2.4 | 0.3 | COc1cc(N(C)C(C)=O)cc(C)c1OCCCN1CCN(c2cccc3sccc23)CC1.Cl [Example 14, N-{4-[3-(4-benzo[b]thiophen-4-yl-piperazin-1-yl)propoxy]-3-methoxy-5-methylphenyl}-N-methylacetamide hydrochloride]
29 | 247.5 to 253 °C (dec.) | – | – | COc1cc(NC=O)cc(C)c1OCCCN1CCN(c2cccc3sccc23)CC1.Cl
30 | 234 to 236 °C | – | – | Cc1ccc(OCCCN2CCN(c3cccc4sccc34)CC2)cn1 (as salt: hydrochloride) [Example 40]
31 | 238.5 °C (dec.) | – | – | CN(C)CCc1ccc(OCCCN2CCN(c3cccc4sccc34)CC2)cc1 (as salt: hydrochloride) [Example 382]
32 | 259 °C (dec.) | – | – | CN(C)Cc1ccc(OCCCN2CCN(c3cccc4sccc34)CC2)c(Cl)c1 (as salt: hydrochloride) [Example 303]
33 | 155 to 158 °C | – | – | COc1cc(N)cc(C)c1OCCCN1CCN(c2cccc3sccc23)CC1 [Example 9, 4-[3-(4-benzo[b]thiophen-4-yl-piperazin-1-yl)-propoxy]-3-methoxy-5-methylaniline]
34 | 186 to 187.5 °C | – | – | CN(C)C(=O)Nc1cc(OCCCCN2CCN(c3cccc4sccc34)CC2)n(C)n1.Cl
35 | 248.1 to 249.6 °C | – | – | CN1CCOc2cc(OCCCN3CCN(c4cccc5sccc45)CC3)ccc21.Cl
36 | 235.5 to 237.5 °C | – | – | CCS(=O)(=O)Nc1cc(C)c(OCCCN2CCN(c3cccc4sccc34)CC2)c(OC)c1.Cl
37 | 224 to 232 °C (dec.) | – | – | CCN(CC)CCc1ccc(OCCCN2CCN(c3cccc4sccc34)CC2)cc1 (as salt: hydrochloride) [Example 368]
38 | 207.9 to 208.8 °C | – | – | Cl.c1cc(N2CCN(CCCOc3ccc4c(c3)NCCO4)CC2)c2ccsc2c1
39 | 203.1 to 204.4 °C | – | – | CN1CNc2ccc(OCCCN3CCN(c4cccc5sccc45)CC3)cc2C1.Cl
